Source: patent publication US7053107B2, “Indazole compounds and pharmaceutical compositions for inhibiting protein kinases, and methods for their use” (Agouron Pharmaceuticals, Inc., priority 2002, dated 2006)

Assays:
KDR = molecular target: T1, KDR (Homo sapiens, UniProt P35968); assay: KDR (VEGFR2) Phosphorylation in PAE-KDR Cells Assay; assay type: cell-based; details: PAE cells overexpressing human KDR
T1 construct: expressed in transfected cells; host or cells: porcine aorta endothelial (PAE) cells
Procedure: This assay determines the ability of a test compound to inhibit the autophosphorylation of KDR in porcine aorta endothelial (PAE)-KDR cells. PAE cells that overexpress human KDR were used in this assay. The cells were cultured in Ham's F12 media supplemented with 10% fetal bovine serum (FBS) and 400 μg/mL G418. Thirty thousands cells were seeded into each well of a 96-well plate in 75 μL of growth media and allowed to attach for 6 hours at 37° C. Cells were then exposed to the starvation media (Ham's F12 media supplemented with 0.1% FBS) for 16 hours. After the starvation period was over, 10 μL of test agent in 5% DMSO in starvation media were added to the test wells and 10 μL of the vehicle (5% DMSO in starvation media) were added into the control wells. The final DMSO concentration in each well was 0.5%. Plates were incubated at […] for 1 hour and the cells were then stimulated with 500 ng/ml VEGF (commercially available from R & D System) in the presence of 2 mM Na3VO4 for 8 minutes. The cells were washed once with 1 mm Na3VO4 in HBSS and lysed by adding 50 μL per well of lysis buffer. […] Phosphorylation status was assessed by spectrophotometer reading at 450 nm. IC50 values were calculated by curve fitting using a four-parameter analysis.

FGF-R1 = molecular target: T2, FGF-R1 (Homo sapiens, UniProt P11362, C488A/C584S/L457V); assay: Fibroblast Growth Factor (FGF-R) spectrophotometric assay; assay type: biochemical; details: 1 μM compound; read-out: FGF-P % inhibit @1 μM
T2 construct: starting from the endogenous methionine residue 456 to glutamate 766; made in house; host or cells: baculovirus vector expression system
Outline: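 Baculovirus-expressed human FGF-R1 kinase domain (Met456–Glu766; L457V/C488A/C584S), 50 nM, with 2 mM ATP and 15 mM poly(E4Y1) in HEPES pH 7.5. ADP formation coupled via PK/LDH to NADH oxidation, read as A340 decrease. Ki from activity across varying compound concentrations.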

[1] = molecular target: T3, unphosphorylated VEGF-R2Δ50 (Homo sapiens, UniProt P35968, DEL940-989/E990V); assay: VEGF-R2 coupled spectrophotometric assay, unphosphorylated construct (FLVK); assay type: biochemical; details: % inhibition at 50 nM compound; read-out: FLVK Ki % inh @ 50 nM
T3 construct: VEGF-R2Δ50 contains residues 806–939 and 990–1171; made in house; host or cells: baculovirus/insect cell system
Outline: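 Human VEGF-R2Δ50 kinase (residues 806–939/990–1171, baculovirus-expressed; autophosphorylated form pre-treated with 3 mM ATP, 4° C, 2 h), 5–40 nM, with poly(E4Y1) in 200 mM HEPES pH 7.5; ADP coupled via PK/LDH to NADH oxidation at 340 nm. Phosphorylated: 1 mM ATP, 5.1 mM poly(E4Y1), 25 mM MgCl2; unphosphorylated: 3 mM ATP, 20 mM poly(E4Y1), 60 mM MgCl2, 2 mM MnCl2. Ki from activity at varying compound levels.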

[2] = molecular target: T4, phosphorylated VEGF-R2Δ50 (Homo sapiens, UniProt P35968, DEL940-989/E990V); assay: VEGF-R2 coupled spectrophotometric (FLVK-P) assay, phosphorylated construct; assay type: biochemical; details: Ki (nM)
T4 construct: VEGF-R2Δ50 contains residues 806–939 and 990–1171; made in house; host or cells: baculovirus/insect cell system
Excerpt: This construct determines the ability of a test compound to inhibit tyrosine kinase activity. A construct (VEGF-R2Δ50) of the cytosolic domain of human vascular endothelial growth factor receptor 2 (VEGF-R2) lacking the 50 central residues of the 68 residues of the kinase insert domain was expressed in a baculovirus/insect cell system. Of the 1356 residues of full-length VEGF-R2, VEGF-R2Δ50 contains residues 806–939 and 990–1171, and also one point mutation (E99OV) within the kinase insert domain relative to wild-type VEGF-R2. Autophosphorylation of the purified construct was performed by incubation of the enzyme at a concentration of 4 μM in the presence of 3 mM ATP and 40 mM MgCl2 in 100 mM HEPES, pH 7.5, containing 5% glycerol and 5 mM DTT, at 4° C. for 2 h. […] See Parast et al., Biochemistry, 37,16788–16801 (1998).
The production of ADP from ATP that accompanies phosphoryl transfer was coupled to oxidation of NADH using phosphoenolpyruvate (PEP) and a system having pyruvate kinase (PK) and lactic dehydrogenase (LDH). The oxidation of NADH was monitored by following the decrease of absorbance at 340 nm (e340=6.22 cm^−1 mM^−1) using a Beckman DU 650 spectrophotometer. […] Ki values were determined by measuring enzyme activity in the presence of varying concentrations of test compounds. The data were analyzed using Enzyme Kinetic and Kaleidagraph software.

[3] = tested on: human umbilical vein endothelial cells (HUVEC); assay: HUVEC Proliferation Assay (VEGF-stimulated); assay type: cell-based
Outline: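 Serum-starved HUVEC (passage 3–4, F12K + 1% FBS, 24 h) pretreated 1 h with compound (final DMSO 0.1%), then stimulated with 6 ng/mL VEGF for 72 h. Proliferation read by 4 h MTT reduction, absorbance 595. IC50 from seven-point 0.5-log curves in triplicate; screening % inhibition normalised to VEGF-only and starvation controls.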

HUVEC = assay: bFGF Huvec; assay type: cell-based; details: Homo sapiens

T2 sequence (P11362 456-766 L457V/C488A/C584S): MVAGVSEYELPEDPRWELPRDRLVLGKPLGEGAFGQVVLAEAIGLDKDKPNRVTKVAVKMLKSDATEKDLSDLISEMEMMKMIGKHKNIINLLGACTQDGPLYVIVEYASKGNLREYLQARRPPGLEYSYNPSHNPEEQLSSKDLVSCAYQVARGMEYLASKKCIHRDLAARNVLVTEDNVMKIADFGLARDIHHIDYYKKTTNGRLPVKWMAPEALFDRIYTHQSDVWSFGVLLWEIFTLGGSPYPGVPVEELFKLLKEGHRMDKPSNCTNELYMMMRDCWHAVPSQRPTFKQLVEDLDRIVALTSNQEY
T3 sequence (P35968 with tags, fused parts or gaps DEL940-989/E990V limits assumed): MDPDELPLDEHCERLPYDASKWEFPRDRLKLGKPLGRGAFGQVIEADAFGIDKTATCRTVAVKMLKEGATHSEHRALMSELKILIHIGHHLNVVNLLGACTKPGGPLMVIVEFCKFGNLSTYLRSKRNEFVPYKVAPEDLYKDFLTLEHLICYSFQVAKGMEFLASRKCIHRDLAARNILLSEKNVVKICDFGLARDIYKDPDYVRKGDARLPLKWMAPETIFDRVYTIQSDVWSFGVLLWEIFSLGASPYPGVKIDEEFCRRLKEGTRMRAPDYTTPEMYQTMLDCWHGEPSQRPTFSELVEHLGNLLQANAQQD
T1 sequence (P35968 20-1356): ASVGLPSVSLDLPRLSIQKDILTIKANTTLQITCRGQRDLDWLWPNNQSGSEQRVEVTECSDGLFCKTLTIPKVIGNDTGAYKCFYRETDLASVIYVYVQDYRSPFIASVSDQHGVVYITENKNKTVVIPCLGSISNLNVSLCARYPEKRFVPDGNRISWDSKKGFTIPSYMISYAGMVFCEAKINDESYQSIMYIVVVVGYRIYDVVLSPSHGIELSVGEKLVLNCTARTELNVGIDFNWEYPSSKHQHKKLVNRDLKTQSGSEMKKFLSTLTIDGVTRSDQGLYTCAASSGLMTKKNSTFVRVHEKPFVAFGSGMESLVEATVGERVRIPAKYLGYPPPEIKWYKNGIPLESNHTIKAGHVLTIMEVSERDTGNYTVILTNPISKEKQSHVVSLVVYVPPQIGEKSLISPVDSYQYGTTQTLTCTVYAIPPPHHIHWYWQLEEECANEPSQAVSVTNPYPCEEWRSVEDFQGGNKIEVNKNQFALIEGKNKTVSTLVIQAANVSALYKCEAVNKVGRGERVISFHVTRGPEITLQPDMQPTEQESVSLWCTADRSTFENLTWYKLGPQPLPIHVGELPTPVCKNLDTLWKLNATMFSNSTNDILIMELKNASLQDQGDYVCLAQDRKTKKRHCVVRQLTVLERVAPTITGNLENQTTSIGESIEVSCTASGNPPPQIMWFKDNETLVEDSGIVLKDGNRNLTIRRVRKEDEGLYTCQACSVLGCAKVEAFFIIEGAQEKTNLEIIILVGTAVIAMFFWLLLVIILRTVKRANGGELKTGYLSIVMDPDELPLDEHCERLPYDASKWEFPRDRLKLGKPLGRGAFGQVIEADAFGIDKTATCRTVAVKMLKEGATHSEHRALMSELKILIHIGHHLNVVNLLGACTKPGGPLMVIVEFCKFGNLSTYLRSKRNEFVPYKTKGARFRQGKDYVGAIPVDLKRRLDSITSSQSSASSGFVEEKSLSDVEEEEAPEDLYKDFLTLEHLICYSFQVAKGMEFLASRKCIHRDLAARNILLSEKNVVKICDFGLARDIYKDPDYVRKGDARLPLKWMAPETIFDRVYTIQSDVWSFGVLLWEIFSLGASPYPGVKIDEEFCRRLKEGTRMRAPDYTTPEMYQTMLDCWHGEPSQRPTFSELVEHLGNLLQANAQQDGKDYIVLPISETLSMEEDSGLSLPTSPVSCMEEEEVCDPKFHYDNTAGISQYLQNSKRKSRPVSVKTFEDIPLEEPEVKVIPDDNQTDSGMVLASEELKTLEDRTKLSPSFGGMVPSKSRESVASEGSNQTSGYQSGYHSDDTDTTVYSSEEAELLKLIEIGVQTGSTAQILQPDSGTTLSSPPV
T4 sequence (P35968 with tags, fused parts or gaps DEL940-989/E990V limits assumed): as the sequence (P35968 with tags, fused parts or gaps DEL940-989/E990V limits assumed) above

Structure (SMILES)	IC50 (KDR)	inhibition at 1 µM (FGF-R1)	inhibition at 0.05 µM [1]	Ki [2]	IC50 [3]	IC50 (HUVEC)
Cc1ccnc(/C=C/c2n[nH]c3cc(Nc4ccccc4C(=O)NCc4ccccn4)ccc23)c1 [Example 37, 2-{3-[2-(4-Methyl-pyridin-2-yl)-vinyl]-1H-indazol6-ylamino}-N-pyridin-2-ylmethyl-benzamide]	0.76 nM	45%	90%			
Cc1ccnc(/C=C/c2n[nH]c3cc(Nc4ccccc4C(=O)NCC#CC4CC4)ccc23)c1 [Example 36, N-(3Cycloprop-2-ynyl)-2-{3-[(E)-2-(4-methyl-pyridin-2-yl)-vinyl]-1H-indazol-6-ylamino}-benzamide]	1.62 nM	69%	95%	0.3 nM	1.67 nM	935 nM
